{"source": "paper PMC11846984", "about": "(Nature Communications, 2025)", "target": "T1, GPX4 (Mus musculus, UniProt O70325)", "T1 sequence (O70325 28-197)": "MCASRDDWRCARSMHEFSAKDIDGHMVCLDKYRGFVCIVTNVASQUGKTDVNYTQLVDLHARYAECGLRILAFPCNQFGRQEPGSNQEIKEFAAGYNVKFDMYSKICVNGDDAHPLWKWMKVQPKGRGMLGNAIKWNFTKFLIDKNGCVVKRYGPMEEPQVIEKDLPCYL", "assay": "cellular thermal shift assay", "assay_type": "cell-based", "data": [{"smiles": "COc1ccc(N(C(=O)CCl)C(C(=O)NCCc2ccccc2)c2cccs2)cc1Cl", "note": "(stereo not shown) [ML162]", "values": [{"measurement": "cellular thermal shift assay (CETSA)", "result": "Both the GPX4-targeting ligand ML162 and ML-NR were found to enhance the thermal stability of the GPX4 protein"}]}]}
